Consider two compounds from ChEMBL document CHEMBL5370611, “Discovery of 4,5,6,7-Tetrahydropyrazolo[1.5-a]pyrizine Derivatives as Core Protein Allosteric Modulators (CpAMs) for the Inhibition of Hepatitis B Virus” (J Med Chem, 2023).

In brackets after ≈: the same amount, converted by molar mass. Activity calls are given as the source filed them. The rule behind the calls is not given here. Bounds are passed on as bounds.

Series [1] deals with Hepatitis B virus. Kind of series: Antiviral activity against HBV infected in human HepG2.2.15 cells assessed as reduction in HBV DNA replication measured after 5 days by qPCR analysis. It is filed as functional, organism-based. The settings on record: HepG2.2.15, 120 h. On the technique in general: Quantitative PCR measures a nucleic acid by following its amplification.
Series [2] can be described thus: Cytotoxicity against human HepDE19 cells assessed as reduction in cell viability measured after 5 days by CCK-8 method. In kind it is functional. Particulars: HepDE19, 120 h, time 5 day.
Series [3] in a line: Selectivity index, ratio of CC50 for human HepDE19 cells assessed as reduction in cell viability to EC50 for HBV infected in human HepG2.2.15 cells assessed as reduction in HBV DNA replication. In kind it is toxicity, cell-based. The settings on record: HBV-infected HepG2.2.15 cells (EC50).
Series [4] can be described thus: Metabolic stability in mouse liver microsomes assessed as clearance at 1 uM preincubated for 10 mins and measured upto 30 mins in presence of NADPH generating system by LC-MS/MS analysis. In kind it is ADME, Microsome. Particulars: time < 40 min. (Liver microsomes are vesicles of endoplasmic reticulum, rich in cytochrome P450 enzymes.)
Series [5] can be described thus: Metabolic stability in human liver microsomes assessed as clearance at 1 uM preincubated for 10 mins and measured upto 30 mins in presence of NADPH generating system by LC-MS/MS analysis. It is filed as ADME, Microsome. Particulars: time < 40 min.
Series [6] in a line: Lyophilization solubility of the compound in phosphate buffer at pH 6.5 incubated for 1 hr under stirring condition and 2 hrs under shaking condition by HPLC-UV analysis. In kind it is physicochemical.
A short description of series [7]: Half life in C57BL/6 mouse plasma at 1 mg/kg, iv administered as single dose measured upto 24 hrs by LC-MS/MS analysis. In kind it is ADME, organism-based.
A short description of series [8]: Volume of distribution at steady state in C57BL/6 mouse plasma at 1 mg/kg, iv administered as single dose measured upto 24 hrs by LC-MS/MS analysis. It is filed as ADME, organism-based. Particulars: read-out: Vdss.
Series [9] in a line: Clearance in C57BL/6 mouse plasma at 1 mg/kg, iv administered as single dose measured upto 24 hrs by LC-MS/MS analysis. It is filed as ADME, organism-based.
Series [10] is described as follows: Cmax in C57BL/6 mouse plasma at 3 mg/kg, po administered as single dose measured upto 24 hrs by LC-MS/MS analysis. In kind it is ADME, organism-based. Details: time < 24 hrs, dose 3 mg/kg, route po.
Series [11] is described as follows: AUC (0 to infinity) in C57BL/6 mouse plasma at 1 mg/kg, iv administered as single dose measured upto 24 hrs by LC-MS/MS analysis. In kind it is ADME, organism-based. Details: dose 1 mg/kg, time < 24 hrs, route iv.
Series [12] can be described thus: AUC (0 to infinity) in C57BL/6 mouse plasma at 3 mg/kg, po administered as single dose measured upto 24 hrs by LC-MS/MS analysis. It is filed as ADME, organism-based. Also on record: time < 24 hrs, dose 3 mg/kg, route po.
Series [13] in a line: Oral bioavailability in C57BL/6 mouse plasma at 3 mg/kg administered as single dose measured upto 24 hrs by LC-MS/MS analysis. In kind it is ADME, organism-based.
A short description of series [14]: AUC (0 to infinity) in C57BL/6 mouse liver at 3 mg/kg, po administered as single dose measured upto 24 hrs by LC-MS/MS analysis. It is filed as ADME, organism-based. Details: dose 3 mg/kg, time < 24 hrs, route po.
Series [15] in a line: Ratio of AUC (0 to infinity) in liver to plasma of C57BL/6 mouse liver at 3 mg/kg, po administered as single dose measured upto 24 hrs by LC-MS/MS analysis. In kind it is ADME, organism-based. The settings on record: read-out: Ratio AUC.
Series [16] is described as follows: Half life in C57BL/6 mouse plasma at 2 mg/kg, iv administered as single dose measured upto 24 hrs by LC-MS/MS analysis. In kind it is ADME, organism-based.
A short description of series [17]: Volume of distribution at steady state in C57BL/6 mouse plasma at 2 mg/kg, iv administered as single dose measured upto 24 hrs by LC-MS/MS analysis. It is filed as ADME, organism-based. Particulars: read-out: Vdss.
The nature of series [18]: Clearance in C57BL/6 mouse plasma at 2 mg/kg, iv administered as single dose measured upto 24 hrs by LC-MS/MS analysis. In kind it is ADME, organism-based.
A short description of series [19]: Cmax in C57BL/6 mouse plasma at 5 mg/kg, po administered as single dose measured upto 24 hrs by LC-MS/MS analysis. Also on record: dose 5 mg/kg, time < 24 hrs, route po. It is filed as ADME, organism-based.
Series [20] is described as follows: AUC (0 to infinity) in C57BL/6 mouse plasma at 2 mg/kg, iv administered as single dose measured upto 24 hrs by LC-MS/MS analysis. In kind it is ADME, organism-based. Also on record: dose 2 mg/kg, time < 24 hrs, route iv.
A short description of series [21]: AUC (0 to infinity) in C57BL/6 mouse plasma at 5 mg/kg, po administered as single dose measured upto 24 hrs by LC-MS/MS analysis. Details: time < 24 hrs, dose 5 mg/kg, route po. In kind it is ADME, organism-based.
Series [22] can be described thus: Oral bioavailability in C57BL/6 mouse plasma at 5 mg/kg administered as single dose measured upto 24 hrs by LC-MS/MS analysis. In kind it is ADME, organism-based.
Series [23] can be described thus: AUC (0 to infinity) in C57BL/6 mouse liver at 5 mg/kg, po administered as single dose measured upto 24 hrs by LC-MS/MS analysis. Details: time < 24 hrs, dose 5 mg/kg, route po. It is filed as ADME, organism-based.
A short description of series [24]: Ratio of AUC (0 to infinity) in liver to plasma of C57BL/6 mouse liver at 5 mg/kg, po administered as single dose measured upto 24 hrs by LC-MS/MS analysis. It is filed as ADME, organism-based. The settings on record: read-out: Ratio AUC.
Series [25] can be described thus: Plasma protein binding in mouse assessed as free fraction incubated for 5 hrs by LC-MS/MS analysis. It is filed as ADME, cell-free.
Series [26] concerns Hepatitis B virus. Kind of series: In vivo antiviral activity against AAV encapsidated HBV infected in C57BL/6 mouse model assessed as log reduction in serum HBV DNA level at 20 mg/kg, BID measured on day 2 by quantitative real-time PCR analysis. The settings on record: time 2 day. In kind it is functional.
The test system of series [27] is Hepatitis B virus. Kind of series: In vivo antiviral activity against AAV encapsidated HBV infected in C57BL/6 mouse model assessed as log reduction in serum HBV DNA level at 20 mg/kg, BID measured on day 4 by quantitative real-time PCR analysis. The settings on record: time 4 day. In kind it is functional.
Series [28] has as its system Hepatitis B virus. Put plainly: In vivo antiviral activity against AAV encapsidated HBV infected in C57BL/6 mouse model assessed as reduction in serum HBV DNA level at 20 mg/kg, BID measured on day 6 by quantitative real-time PCR analysis. It is filed as functional, organism-based. Particulars: time 6.0 day.

Broadly, the EC50 is the concentration at which the effect is half-maximal. The CC50 is the concentration giving 50% cytotoxicity. One may read the solubility as the concentration that dissolves in the medium under given conditions. Read a low solubility as little dissolved substance. As a reminder, the half-life is how long it takes for the measured level to halve. A low value points to fast loss. By clearance is commonly meant the volume of plasma or blood freed of the substance per unit of time. Low readings indicate inefficient removal, high ones efficient removal. By Cmax is commonly meant the peak of the concentration-time curve. In general, AUC(0-inf) refers to the area under the concentration-time curve extrapolated to infinity. A high value points to high exposure. As a reminder, the bioavailability is the share of a dose that reaches the circulation, judged against a reference dose that is usually intravenous. A high value points to much systemic uptake. Turning to `O=C(Nc1ccc(F)cc1)N1CCn2ncc(-c3ccc(F)cc3)c2C1`, the EC50 in the series with Hepatitis B virus [1] was 124 nM. Besides, the CC50 in series [2] amounted to 55000 nM. The selectivity ratio in series [3] was 443. The CLhep predicted at 1 µM was 56 mL/min/kg in series [4] and 14 mL/min/kg in series [5]. In addition, in series [6], the solubility at 3 h was < 1 µg/mL. For the same compound, in series [7], the half-life is 0.36 h. The Vd in series [8] was 2.1 L/kg. Further, in series [9], the clearance stood at 146 mL/min/kg. The compound also had a Cmax in series [10] of 407 ng/mL. Further, the area under the curve AUC(0-inf) is 208 ng·h/mL in series [11], 276 ng·h/mL in [12] and 5110 ng·h/mL in series [14]. The compound also came in with a bioavailability in series [13] of 44%. In series [15], the Kp at 24 h came to 18.5.

For orientation: fraction unbound means the share of the substance not bound to proteins or other matrix. For the compound `C[C@H]1Cn2ncc(N3CCOCC3=O)c2CN1C(=O)Nc1ccc(F)c(Cl)c1`, the concentration for a half-maximal effect (EC50) with Hepatitis B virus [1] is 27 nM. In addition, in series [2], the CC50 is > 100000 nM. Further, the selectivity ratio in [3] is > 3700. Further, the values for the CLhep predicted at 1 µM in series [4] and in series [5] were 39 mL/min/kg and 7.1 mL/min/kg, respectively. For the same compound, the concentration in solution in series [6] (solubility at 3 h) was 156 µg/mL (≈ 383 µM). Also, the half-life in series [16] was 2 h. For the same compound, the Vd in series [17] was determined as 1.4 L/kg. The compound further showed a clearance in series [18] of 10 mL/min/kg. Besides, in series [19], the Cmax stood at 1330 ng/mL. Moreover, the AUC(0-inf) in series [20] amounted to 3520 ng·h/mL; in [21] it was 4180 ng·h/mL; in series [23], 10900 ng·h/mL. The bioavailability in [22] is 48%. For the same compound, the Kp at 24 h in [24] amounted to 2.6. Also, the fraction unbound at 5 h in [25] stood at 0.31. Also, the figures for the “log(activity)” value in the series on Hepatitis B virus [26] and in the series with Hepatitis B virus [27] were 0.67 and 0.5, respectively. Further, in the series on Hepatitis B virus [28], the result was inactive.
